Literature values as cited in patent publication US20130281523A1, “LOW DOSE CANNABINOID MEDICAMENTS” (priority 2010, published 2013).

System: rat model of sleep apnea
Settings: 10 mg/kg intraperitoneal injection

## CCCCCc1cc(O)c2c(c1)OC(C)(C)[C@@H]1CCC(C)=C[C@@H]21 [Dronabinol, Delta-9-tetrahydrocannabinol]
  Breathing cessation during non-REM (NREM) sleep: reduced breathing cessation
